# Reference: patent US7354926B2, “Molecules derived from noraporphine” (Sederma SAS, priority 2002, dated 2008)
# How the values were obtained:
# [1] = Inhibition of peroxidation induced on liposomes by HO2/FeCl2 (Fenton reaction); settings: 0.06 mmol/l; similar protocol with HO2/FeCl2 added to the liposomes
# Procedure: (§1) In order to seek an antioxidant activity, we evaluated 2,9-diacetyloxy-1,10-dimethoxy-6-methyl-noraporphine (compound II) effect on the inhibition of peroxidation induced on liposomes by UVA or pair HO2/FeCl2.
# (§2) The liposomes, once manufactured, receive the products to be tested in solution. Then they are put under UVA lamp and are irradiated to 10 J/cm^2. The liposomes are incubated at 45° C. After 24 hours, the lipidic peroxidation is quantified by estimating the rate of combined dienes markers. The effect of the product is compared with negative control.
# A strong inhibition (−60% with 0.06 mmol/l) is also obtained in a similar protocol when HO2/FeCl2. is added (Fenton reaction) to the solution of liposomes.
# [2] = tested on: normal human melanocytes (MHN); assay: Inhibition of melanin synthesis (in vitro) in culture of normal human melanocytes; format: cell-based; settings: 7 days of exposure, various concentrations, vs control cells, normalized on protein content
# Procedure: The efficacy of the products on melanization was tested in culture of normal human melanocytes (MHN). This culture medium is conventionally used to test variations in melanin levels. The cells are incubated in the presence of the test product for 7 days while the control cells are incubated in the culture medium alone.
# After 7 days, the total melanin (phaeomelanin and eumelanin) present in the cells is determined after cell lysis and dissolution in sodium hydroxide, the assay is colorimetric.
# The melanin level produced under exposure to the test product at various concentrations are compared to those obtained with the control cells. The data are normalized on the protein content of the sample.
# The inhibition of synthesis observed after 7 days of exposure to those products is dependent on the test concentration. Inhibition varies from −28 to −51%.
# [3] = tested on: G-3-PDH (Glycerol-3-Phosphate deshydrogenase) activity in fibroblasts 3T3 L1 / pre-adipocytes; assay: Inhibition of lipogenesis (in vitro): G-3-PDH activity in differentiating 3T3 L1 pre-adipocytes; format: cell-based; settings: for ACTIVITY G-3-PDH/10^−6 cells (inhibition in % of the witness): average of 3 independent tests
# Procedure: The following test is based on the fact that a cocktail from substances (hormonal messengers) induce the fibroblasts 3T3 L1 differentiation, in culture, into pre-adipocytes then in adipocytes charged with lipids.
# The culture proceeds in three stages: cellular multiplication until confluence, addition of cocktail of differentiation (stage during which the initial pre-adipocytes are obtained (72 hours), then active differentiation with lipogenesis stimulation (approximately 72 hours) at the end of which apparent storage in lipidic droplets is then definitely visible under microscope.
# The enzyme G-3-PDH (Glycerol-3-Phosphate deshydrogenase), essential to triglyceride synthesis is expressed very strongly during this active stage of lipidic storage.
# The product to be tested is added at the second step.
# After the incubation period the G-3-PDH activity is compared between the pre-adipocytes witnesses and those incubated in the presence of the tested product. Under these conditions, a product which inhibits the lipogenesis causes a fall of the G-3-PDH activity.
# After the induced differentiation, the solution to test is added to the culture of pre-adipocytes, here a 2,9-diacetyloxy-1,10-dimethoxy-6-methyl-noraporphine solution (compound II). In parallel, two witness cultures, one in negative and the other in positive are carried out.
# At the end of the incubation, the cells are taken and lysed and the test is carried out on the intracellular contents.
# The G-3-PDH activity is measured by NADH disappearance (λ=340 nm).
# The enzymatic activity values are standardized with the number of cells.
# [4] = Inhibition of peroxidation induced on liposomes by UVA; settings: for Inhibition perox. UVA: UVA 10 J/cm^2, 45° C., 24 hours, combined dienes
# Procedure: as §1, §2
smiles,measurement,setting,value
"COc1cc2c(cc1OC(C)=O)CC1c3c(cc(OC(C)=O)c(OC)c3-2)CCN1C (centres unmarked) [compound II, 2,9-diacetyloxy-1,10-dimethoxy-6-methyl-noraporphine]","Inhibition of peroxidation, HO2/FeCl2 (Fenton reaction)",[1],−60%
same,Inhibition of melanin synthesis,[2],−28 to −51%
same,ACTIVITY G-3-PDH/10^−6 cells (inhibition in % of the witness),[3]; 0.03 mmol/l,−49%
same,ACTIVITY G-3-PDH/10^−6 cells (inhibition in % of the witness),[3]; 0.06 mmol/l,−67%
same,Morphology of the preadipocytes under microscope,[3]; compared to witness cells,few lipidic inclusions
same,Inhibition perox. UVA,[4]; 0.03 mmol/l,−93%
same,Inhibition perox. UVA,[4]; 0.06 mmol/l,−87%
same,Inhibition perox. UVA,[4]; 0.09 mmol/l,−89%
same,Inhibition perox. UVA,[4]; 0.15 mmol/l,≈−100%
same,Inhibition perox. UVA,[4]; 0.30 mmol/l,≈−100%
same,Inhibition of lipidic peroxidation UVA induced (in words),[4]; with the tested concentrations (0.03-0.30 mmol/l),almost completely inhibits
